Reference: patent publication US8273754B2, “Substituted 1H-pyrazolo[3,4-D]pyrimidine-6-amine compounds” (ArQule, Inc., priority 2008, dated 2012)
Where two headings read alike, the source gives them in different places.

System: cancer cells
Assay: MTS cell growth inhibition assay (72 hours)
Assay type: cell-based
Summary of the method: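 Growth inhibition read as formazan absorbance at 492 nm after 4 h MTS/PMS, following 72 h compound exposure at 37 °C in 1% FBS DMEM (cells pre-seeded 18 h). IC50 = 50% absorbance reduction; inhibition graded in bands.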

[1] = Homo sapiens, DLD-1, 72 h, DLD-1 cells, read-out: DLD-1 MTS 72 hr at 10 μM
[2] = Homo sapiens, KATO III, 72 h, KATO III cells, read-out: KATO III MTS 72 hr at 10 μM
[3] = Homo sapiens, MDA-MB-231, 72 h, MDA-MB-231 cells, read-out: MDA-MB-231 MTS 72 hr at 10 μM
[4] = Homo sapiens, NCI-H1299, 72 h, NCI-H1299 cells, read-out: NCI-H1299 MTS 72 hr at 10 μM
[5] = PaCa-2, 72 h, PACA-2 cells, read-out: PACA-2 MTS 72 hr at 10 μM

SMILES	inhibition at 10 µM [1]	inhibition at 10 µM [2]	inhibition at 10 µM [3]	inhibition at 10 µM [4]	inhibition at 10 µM [5]
Nc1nc(NC2Cc3ccccc3N(Cc3ccc(-c4cccs4)cc3)C2)c2cn[nH]c2n1 (stereo not shown) [Compound 136, N4-{1-[4-(2-thienyl)benzyl]-1,2,3,4-tetrahydroquinolin-3-yl}-1H-pyrazolo[3,4-d]pyrimidine-4,6-diamine]	> 79%	> 79%	< 50%	< 50%	< 50%
Nc1nc(NC2Cc3ccccc3N(S(=O)(=O)c3cccc(NC(=O)Nc4ccccc4F)c3)C2)c2cn[nH]c2n1 (stereo not shown) [Compound 215, 1-[3-({3-[(6-amino-1H-pyrazolo[3,4-d]pyrimidin-4-yl)amino]-3,4-dihydroquinolin-1(2H)-yl}sulfonyl)phenyl]-3-(2-fluorophenyl)urea]				< 50%	
Nc1nc(NC2Cc3ccccc3N(S(=O)(=O)Cc3ccccc3)C2)c2cn[nH]c2n1 (stereo not shown) [Compound 21, N4-(1-(benzylsulfonyl)-1,2,3,4-tetrahydroquinolin-3-yl)-1H-pyrazolo[3,4-d]pyrimidine-4,6-diamine]	> 79%	> 79%	50 to 79%	< 50%	> 79%
Nc1nc(NC2Cc3ccccc3N(S(=O)(=O)c3ccc(Oc4ccccc4)cc3)C2)c2cn[nH]c2n1 (stereo not shown) [Compound 27, N4-(1-(4-phenoxyphenylsulfonyl)-1,2,3,4-tetrahydroquinolin-3-yl)-1H-pyrazolo[3,4-d]pyrimidine-4,6-diamine]	> 79%	> 79%	> 79%	50 to 79%	> 79%
Nc1nc(NC2Cc3ccccc3N(S(=O)(=O)c3ccc(-c4ccc(F)cc4)cc3)C2)c2cn[nH]c2n1 (stereo not shown) [Compound 65, N4-(1-(4′-fluorobiphenyl-4-ylsulfonyl)-1,2,3,4-tetrahydroquinolin-3-yl)-1H-pyrazolo[3,4-d]pyrimidine-4,6-diamine]	50 to 79%	> 79%	50 to 79%	50 to 79%	> 79%
Cc1ccc(Oc2ccccc2CN2CC(Nc3nc(N)nc4[nH]ncc34)Cc3ccccc32)cc1 (stereo not shown) [Compound 158, N4-{1-[2-(4-methylphenoxy)benzyl]-1,2,3,4-tetrahydroquinolin-3-yl}-1H-pyrazolo[3,4-d]pyrimidine-4,6-diamine]	> 79%	> 79%	50 to 79%	< 50%	> 79%
Nc1nc(NC2CCN(S(=O)(=O)c3cccc4c(Cl)cccc34)c3ccccc3C2)c2cn[nH]c2n1 (stereo not shown) [Compound 187, N4-{1-[(5-chloro-1-naphthyl)sulfonyl]-2,3,4,5-tetrahydro-1H-1-benzazepin-4-yl}-1H-pyrazolo[3,4-d]pyrimidine-4,6-diamine]	50 to 79%	50 to 79%	< 50%	< 50%	50 to 79%
COc1ccc(CN2CC(Nc3nc(N)nc4[nH]ncc34)Cc3ccccc32)cc1OC1CCCC1 (stereo not shown) [Compound 162, N4-{1-[3-(cyclopentyloxy)-4-methoxybenzyl]-1,2,3,4-tetrahydroquinolin-3-yl}-1H-pyrazolo[3,4-d]pyrimidine-4,6-diamine]	< 50%	< 50%	< 50%	< 50%	< 50%
Nc1nc(NC2Cc3ccccc3N(Cc3ccc(OCc4ccccc4)cc3)C2)c2cn[nH]c2n1 (stereo not shown) [Compound 155, N4-{1-[4-(benzyloxy)benzyl]-1,2,3,4-tetrahydroquinolin-3-yl}-1H-pyrazolo[3,4-d]pyrimidine-4,6-diamine]	> 79%	> 79%	> 79%	> 79%	> 79%
Nc1nc(NC2Cc3ccccc3N(C(=O)C3CCC3)C2)c2cn[nH]c2n1 (stereo not shown) [Compound 103, (3-(6-amino-1H-pyrazolo[3,4-d]pyrimidin-4-ylamino)-3,4-dihydroquinolin-1(2H)-yl)(cyclobutyl)methanone]	> 79%	> 79%	> 79%	> 79%	> 79%
CC(C)(C)c1ccc(OCC(=O)N2CC(Nc3nc(N)nc4[nH]ncc34)Cc3ccccc32)cc1 (stereo not shown) [Compound 97, 1-(3-(6-amino-1H-pyrazolo[3,4-d]pyrimidin-4-ylamino)-3,4-dihydroquinolin-1(2H)-yl)-2-(4-tert-butylphenoxy)ethanone]	50 to 79%	50 to 79%	50 to 79%	< 50%	< 50%
Cc1ccc(Cl)c(NC(=O)Nc2cccc(S(=O)(=O)N3CC(Nc4nc(N)nc5[nH]ncc45)Cc4ccccc43)c2)c1 (stereo not shown) [Compound 218, 1-[3-({3-[(6-amino-1H-pyrazolo[3,4-d]pyrimidin-4-yl)amino]-3,4-dihydroquinolin-1(2H)-yl}sulfonyl)phenyl]-3-(2-chloro-5-methylphenyl)urea]	> 79%	> 79%	> 79%	> 79%	> 79%
Nc1nc(NC2Cc3ccccc3N(S(=O)(=O)c3ccc(Cl)cc3)C2)c2cn[nH]c2n1 (stereo not shown) [Compound 35, N4-(1-(4-chlorophenylsulfonyl)-1,2,3,4-tetrahydroquinolin-3-yl)-1H-pyrazolo[3,4-d]pyrimidine-4,6-diamine]	< 50%	< 50%	< 50%	< 50%	< 50%
Cc1cccc(S(=O)(=O)N2CCC(Nc3nc(N)nc4[nH]ncc34)Cc3ccccc32)c1 (stereo not shown) [Compound 168, N4-{1-[(3-methylphenyl)sulfonyl]-2,3,4,5-tetrahydro-1H-1-benzazepin-4-yl}-1H-pyrazolo[3,4-d]pyrimidine-4,6-diamine]	< 50%	< 50%	< 50%	< 50%	< 50%
Cc1ccc(CN2CC(Nc3nc(N)nc4[nH]ncc34)Cc3ccccc32)cc1C (stereo not shown) [Compound 130, N4-[1-(3,4-dimethylbenzyl)-1,2,3,4-tetrahydroquinolin-3-yl]-1H-pyrazolo[3,4-d]pyrimidine-4,6-diamine]	< 50%	< 50%	< 50%	< 50%	< 50%
COc1ccc(Oc2ccccc2CN2CC(Nc3nc(N)nc4[nH]ncc34)Cc3ccccc32)cc1 (stereo not shown) [Compound 153, N4-{1-[2-(4-methoxyphenoxy)benzyl]-1,2,3,4-tetrahydroquinolin-3-yl}-1H-pyrazolo[3,4-d]pyrimidine-4,6-diamine]	50 to 79%	50 to 79%	< 50%	< 50%	< 50%
Nc1nc(NC2Cc3ccccc3N(S(=O)(=O)c3ccc(F)cc3)C2)c2cn[nH]c2n1 (stereo not shown) [Compound 20, N4-(1-(4-fluorophenylsulfonyl)-1,2,3,4-tetrahydroquinolin-3-yl)-1H-pyrazolo[3,4-d]pyrimidine-4,6-diamine]	< 50%	< 50%	< 50%	< 50%	< 50%
Nc1nc(NC2Cc3ccccc3N(S(=O)(=O)c3cc(Cl)cc(Cl)c3)C2)c2cn[nH]c2n1 (stereo not shown) [Compound 36, N4-(1-(3,5-dichlorophenylsulfonyl)-1,2,3,4-tetrahydroquinolin-3-yl)-1H-pyrazolo[3,4-d]pyrimidine-4,6-diamine]	< 50%	50 to 79%	< 50%	< 50%	< 50%
Nc1nc(NC2Cc3ccccc3N(S(=O)(=O)c3ccc(NC(=O)Nc4cc(C(F)(F)F)ccc4F)cc3)C2)c2cn[nH]c2n1 (stereo not shown) [Compound 196, 1-[4-({3-[(6-amino-1H-pyrazolo[3,4-d]pyrimidin-4-yl)amino]-3,4-dihydroquinolin-1(2H)-yl}sulfonyl)phenyl]-3-[2-fluoro-5-(trifluoromethyl)phenyl]urea]	> 79%	> 79%	> 79%	50 to 79%	> 79%
Nc1nc(NC2Cc3ccccc3N(C(=O)c3c(F)cccc3Cl)C2)c2cn[nH]c2n1 (stereo not shown) [Compound 99, (3-(6-amino-1H-pyrazolo[3,4-d]pyrimidin-4-ylamino)-3,4-dihydroquinolin-1(2H)-yl)(2-chloro-6-fluorophenyl)methanone]	< 50%	< 50%	< 50%	< 50%	< 50%
Nc1nc(NC2Cc3ccccc3N(S(=O)(=O)c3cccc(NC(=O)Nc4ccc(F)c(F)c4)c3)C2)c2cn[nH]c2n1 (stereo not shown) [Compound 207, 1-[3-({3-[(6-amino-1H-pyrazolo[3,4-d]pyrimidin-4-yl)amino]-3,4-dihydroquinolin-1(2H)-yl}sulfonyl)phenyl]-3-(3,4-difluorophenyl)urea]	> 79%	> 79%	> 79%	> 79%	> 79%
Nc1nc(NC2Cc3ccccc3N(C(=O)c3ccc(C(F)(F)F)c(F)c3)C2)c2cn[nH]c2n1 (stereo not shown) [Compound 100, (3-(6-amino-1H-pyrazolo[3,4-d]pyrimidin-4-ylamino)-3,4-dihydroquinolin-1(2H)-yl)(3-fluoro-4-(trifluoromethyl)phenyl)methanone]	< 50%	< 50%	< 50%	< 50%	< 50%
